Patent US9943485B2, “Bioactive compounds protection method and compositions containing the same” (priority 2003, dated 2018)

Tests used:
[1] = Effects of dietary insulin in milk replacer on weight gain in bovine neonates; format: in vivo, Friesy and Charole' calves; details: calves, 600 MicroUnits insulin/cc of liquid milk replacer
Excerpt: 100 Friesy and Charole' calves in ages 12-15 days from birth, were used. Each calf received a milk replacer, of up to 6 liters a day, until the 37th day from birth. From the 37th day, milk replacer quantity was reduced by 0.5 liters every 2 days while simultaneously, pellet quantity increased, until the calf's 57 days old, when it is considered fully weaned. Calves in the experimental group receive 600 MicroUnits/cc. of liquid milk replacer. Calves in the control group receive no insulin at all. Daily growth in grams per each 1 Kg. of birth weight was measured and calculated for each calf.

[2] = Effects of feed formula enriched with encapsulated insulin on lambs' weight gain, disease incidence and death rate; format: in vivo, Assaf specie lambs; details: one study
Excerpt: More than 1,000 Assaf specie lambs over a period of 12 months at the age of 2-3 days from birth, were used. The growing period was divided into two periods: 3-28 days from birth, during which the lambs were exclusively fed by a milk replacer; and 29-75 days from birth, during which the lambs were fed by post-weaning mix/mash. Lambs in the study groups received between 600 MicroUnits-3,000 MicroUnits of insulin/ml. of milk replacer, and between 1,600 MicroUnits-5,000 MicroUnits of insulin/gr. of mix/mash.
A liquid blend, of 4 Kilograms of Maltodextrin, 40 Liters of Saline 0.9% and 100,000 IU (International Units) of insulin was blended (e.g., 25 IU insulin per 1 g of Maltodextrin). The liquid blend was then freeze-dried. The product of the process was maltodextrin encapsulated insulin. 97% of the bioactive properties of the insulin were maintained after the freeze-drying process. A premix of 10 Kg. was prepared from standard milk powder and the maltodextrin encapsulated insulin. The premix was then blended with 740 Kg. of standard milk replacer product, to generate 750 Kg. of insulin enriched commercial milk replacer.

With insulin the “average daily weight growth in grams per each Kg. of birth weight” value ([1]; at the end of the study period) was 22.47 g/Kg birth weight, the “more weight gained compared with the control group” value ([1]; between day 17 and day 67 after birth) was “up to 26%” and the “lambs survived at marketing” value ([2]; insulin fed group started with 70 newly born lambs, 150 days after birth) was 68 lambs. The death rate ([2]; insulin fed group, 70 lambs, at marketing (150 days after birth)) was 2.8% and the “death rate lower compared with the control group” value ([2]; insulin-fed group 2.8% vs control 11.6% death rate) was 74.8%.
